What all share (format): cell-based
For assay [1], the system named is alpha-smooth muscle actin (α-SMA). Kind of assay: Inhibition of TGF-β induced expression of alpha-smooth muscle actin (α-SMA) in CFSC cells (western blot). As to conditions: compound at 10 μM, TGF-β (10 ng/mL), 24 hours, band intensity vs TGF-β only. Put shortly: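 CFSC hepatic stellate cells in serum-free DMEM treated 24 h at 37 °C with compound at 10 μM plus TGF-β (10 ng/mL). α-SMA measured by Western blot with β-actin, ECL detection, densitometry. Percent inhibition is decrease in band intensity versus TGF-β-only cells.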

Another assay concerns SW480 (colon cancer). Kind of assay: Antiproliferative activity (CCK-8 cell viability), SW480. As to conditions: Homo sapiens, 72 h; for inhibition at 3.3 µM: Compound concentration: 3.3 μM; for inhibition at 3.3 µM / inhibition at 10 µM: read-out: Antiproliferative activity in cancerous cells, SW480 (inhibition of cell growth); for inhibition at 10 µM: Compound concentration: 10 μM. Put shortly: (§1)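 Growth inhibition graded in bands from percent viability against DMSO vehicle, read as CCK-8 absorbance at 450 nm. Compound tested at 3.3, 10 or 30 μM for 72 h, 37 °C; media contained 10% FBS: DMEM for HepG2/SW480, MEM for HeLa, F-12K for A549.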

The test system of assay [2] is B16F10 (malignant melanoma). Briefly: Antiproliferative activity (CCK-8 cell viability), B16F10. The following applies: Mus musculus, 72 h; for inhibition at 3.3 µM: B16-F10, Compound concentration: 3.3 μM; for inhibition at 3.3 µM / inhibition at 10 µM: read-out: Antiproliferative activity in cancerous cells, B16F10 (inhibition of cell growth); for inhibition at 10 µM: B16-F10, Compound concentration: 10 μM. In short, it runs like this:
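Cell growth inhibition was measured in B16F10 malignant melanoma cells with a Cell Counting Kit-8 viability assay. Cells were maintained in DMEM plus 10% fetal bovine serum, seeded at 2,000-5,000 cells/well in 96-well plates, and treated for 72 h at 37° C. Viability was expressed relative to DMSO-treated vehicle control wells.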

Assay [3] deals with A431 (epidermoid carcinoma). Kind of assay: Antiproliferative activity (CCK-8 cell viability), A431. As to conditions: Homo sapiens, 72 h; for inhibition at 3.3 µM: A-431, Compound concentration: 3.3 μM; for inhibition at 3.3 µM / inhibition at 10 µM: read-out: Antiproliferative activity in cancerous cells, A431 (inhibition of cell growth); for inhibition at 10 µM: A-431, Compound concentration: 10 μM. In short, it runs like this: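 This growth inhibition assay used A431 cells maintained in Dulbecco's modified Eagle's medium plus 10% fetal bovine serum. Cells were seeded in 96-well plates, treated with compound for 72 h at 37° C., and then given 10 μL CCK-8 solution. After a further 4 h, absorbance was read at 450 nm.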

Assay [4] has as its system MDA-MB-231 (breast cancer). Briefly: Antiproliferative activity (CCK-8 cell viability), MDA-MB-231. As to conditions: Homo sapiens, 72 h, read-out: Antiproliferative activity in cancerous cells, MDA-MB-231 (inhibition of cell growth); for inhibition at 3.3 µM: Compound concentration: 3.3 μM; for inhibition at 10 µM: Compound concentration: 10 μM. Put shortly:
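Growth inhibition of human MDA-MB-231 breast cancer cells was assessed with a Cell Counting Kit-8. Cells cultured in DMEM plus 10% FBS were seeded at 2,000-5,000 cells/well, treated after attachment, and kept 72 h at 37° C. CCK-8 solution (10 μL) was added for 4 h, and absorbance at 450 nm was compared with DMSO-treated controls.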

In another assay the test system is HeLa (cervical cancer). Briefly: Antiproliferative activity (CCK-8 cell viability), HeLa. The following applies: Homo sapiens, 72 h, read-out: Antiproliferative activity in cancerous cells, HELA (inhibition of cell growth); for inhibition at 3.3 µM: Compound concentration: 3.3 μM; for inhibition at 10 µM: Compound concentration: 10 μM. Put shortly:
as §1

Another assay concerns HepG2 (liver cancer). Briefly: Antiproliferative activity (CCK-8 cell viability), HepG2. The following applies: Homo sapiens, 72 h; for inhibition at 3.3 µM: Compound concentration: 3.3 μM; for inhibition at 3.3 µM / inhibition at 10 µM: read-out: Antiproliferative activity in cancerous cells, HepG2 (inhibition of cell growth); for inhibition at 10 µM: Compound concentration: 10 μM. In short, it runs like this: as §1

Assay [5] has as its system A549 (lung adenocarcinoma). Kind of assay: Antiproliferative activity (CCK-8 cell viability), A549. The following applies: Homo sapiens, 72 h; for inhibition at 3.3 µM: Compound concentration: 3.3 μM; for inhibition at 3.3 µM / inhibition at 10 µM: read-out: Antiproliferative activity in cancerous cells, A549 (inhibition of cell growth); for inhibition at 10 µM: Compound concentration: 10 μM. In short, it runs like this:
as §1

Where only a bound is given, the exact number is not on record here.

With `CCc1ccc2c(c1)C(CC(=O)O)=C(C)/C2=C/c1cccc(COc2ccccc2)c1` [B11, (Z)-2-(5-Ethyl-2-methyl-1-(3-(phenoxymethyl)benzylidene)-1H-inden-3-yl)acetic acid], the inhibition at 10 µM in assay [1] is above 80%; with SW480 (colon cancer), at least 50%; in assay [2], at least 50%; in assay [3] it was at least 50%; in assay [4], at least 50%; in the assay on HeLa (cervical cancer), at least 50%. Also, the inhibition at 10 µM (in the assay on HepG2 (liver cancer); in assay [5]) was at least 50% throughout. Also, the inhibition at 3.3 µM in the assay on SW480 (colon cancer) is at least 50%; in assay [2] it was at least 50%; in assay [3] it was at least 50%; in assay [4], 30 to 50%; with HeLa (cervical cancer), below 30%; in the assay on HepG2 (liver cancer), at least 50%. Also, the inhibition at 3.3 µM in assay [5] fell in the range of 30 to 50%.
`CC1=C(CC(=O)O)c2cc(C)ccc2/C1=C\c1cccc(COc2ccccc2)c1` [B12, (Z)-2-(2,5-Dimethyl-1-(3-(phenoxymethyl)benzylidene)-1H-inden-3-yl)acetic acid]: the inhibition at 10 µM was above 80% in assay [1]; below 30% in the assay with SW480 (colon cancer); 30 to 50% in assay [2]; at least 50% in assay [3]; at least 50% in assay [4]; at least 50% with HeLa (cervical cancer). In addition, the inhibition at 10 µM (in the assay on HepG2 (liver cancer); in assay [5]) was at least 50% each time. The inhibition at 3.3 µM with SW480 (colon cancer) was below 30%; in assay [2], below 30%; in assay [3] it was at least 50%; in assay [4], at least 50%; with HeLa (cervical cancer) it was below 30%; in the assay with HepG2 (liver cancer), below 30%. For the same compound, the inhibition at 3.3 µM in assay [5] lay within 30 to 50%.
As to `CC1=C(CC(=O)O)c2c(F)cccc2/C1=C\c1cccc(COc2ccccc2)c1` [B13, (Z)-2-(4-Fluoro-2-methyl-1-(3-(phenoxymethyl)benzylidene)-1H-inden-3-yl)-acetic acid], the inhibition at 10 µM in assay [1] is below 30%; in the assay with SW480 (colon cancer), below 30%; in assay [2], at least 50%; in assay [3], 30 to 50%; in assay [4], at least 50%; with HeLa (cervical cancer) it was at least 50%. The inhibition at 10 µM (with HepG2 (liver cancer); in assay [5]) was 30 to 50% each time. Further, the inhibition at 3.3 µM was below 30% with SW480 (colon cancer); 30 to 50% in assay [2]; below 30% in assay [3]; at least 50% in assay [4]; 30 to 50% with HeLa (cervical cancer); below 30% in the assay on HepG2 (liver cancer). In addition, the inhibition at 3.3 µM in assay [5] was 30 to 50%. In addition, the inhibition at 30 µM was 30 to 50% with SW480 (colon cancer) (Compound concentration: 30 μM, read-out: Antiproliferative activity in cancerous cells, SW480) and 30 to 50% in the assay on HepG2 (liver cancer) (Compound concentration: 30 μM, read-out: Antiproliferative activity in cancerous cells, HepG2).
In the case of `CC1=C(CCC(=O)O)c2ccccc2/C1=C\c1cccc(COc2ccccc2)c1` [B15, (Z)-3-(2-Methyl-1-(3-(phenoxymethyl)benzylidene)-1H-inden-3-yl)propanoic acid], the inhibition at 10 µM was below 30% in assay [1]; at least 50% in the assay with SW480 (colon cancer); at least 50% in assay [2]; at least 50% in assay [3]; at least 50% in assay [4]; at least 50% in the assay with HeLa (cervical cancer). Moreover, the inhibition at 10 µM (with HepG2 (liver cancer); in assay [5]) was at least 50% each time. In addition, the inhibition at 3.3 µM was at least 50% in the assay with SW480 (colon cancer); at least 50% in assay [2]; at least 50% in assay [3]; below 30% in assay [4]; 30 to 50% with HeLa (cervical cancer); 30 to 50% in the assay with HepG2 (liver cancer). In addition, the inhibition at 3.3 µM in assay [5] is 30 to 50%.
For `CC1=C(CC(=O)O)c2cc(F)ccc2/C1=C\c1ccc(CN(Cc2ccccn2)c2ccccc2)cc1` [B16, (Z)-2-(5-Fluoro-2-methyl-1-(4-((phenyl(pyridin-2-ylmethyl)amino)methyl)-benzylidene)-1H-inden-3-yl)acetic acid], the inhibition at 10 µM is above 80% in assay [1]; below 30% in the assay with SW480 (colon cancer); at least 50% in assay [2]; at least 50% in assay [3]; at least 50% in assay [4]; at least 50% in the assay on HeLa (cervical cancer). In addition, the inhibition at 10 µM (with HepG2 (liver cancer); in assay [5]) was at least 50% throughout. Moreover, the inhibition at 3.3 µM was below 30% in the assay on SW480 (colon cancer); 30 to 50% in assay [2]; below 30% in assay [3]; at least 50% in assay [4]; 30 to 50% in the assay on HeLa (cervical cancer); below 30% in the assay on HepG2 (liver cancer). For the same compound, in assay [5], the inhibition at 3.3 µM was at least 50%.
`COc1ccc2c(c1)C(CC(=O)O)=C(C)/C2=C/c1cccc(COc2ccccc2)c1` [B20, (Z)-2-(5-Methoxy-2-methyl-1-(3-(phenoxymethyl)benzylidene)-1H-inden-3-yl)-acetic acid]: the inhibition at 10 µM was above 80% in assay [1]; 30 to 50% in the assay with SW480 (colon cancer); below 30% in assay [2]; below 30% in assay [3]; 30 to 50% in assay [4]; 30 to 50% with HeLa (cervical cancer). Besides, the inhibition at 10 µM (in the assay with HepG2 (liver cancer); in assay [5]) was below 30% each time. Besides, the inhibition at 3.3 µM is 30 to 50% with SW480 (colon cancer); below 30% in assay [2]; below 30% in assay [3]; 30 to 50% in assay [4]; below 30% in the assay with HeLa (cervical cancer); below 30% in the assay with HepG2 (liver cancer). Moreover, the inhibition at 3.3 µM in assay [5] is below 30%. The inhibition at 30 µM was below 30% in assay [2] (B16-F10, Compound concentration: 30 μM, read-out: Antiproliferative activity in cancerous cells, B16F10); below 30% in assay [3] (A-431, Compound concentration: 30 μM, read-out: Antiproliferative activity in cancerous cells, A431); below 30% in assay [5] (Compound concentration: 30 μM, read-out: Antiproliferative activity in cancerous cells, A549).
Turning to `CC1=C(CC(=O)O)c2cc(F)ccc2/C1=C\c1cccc(COc2cccc(C(C)(C)C)c2)c1` [B21, (Z)-2-(1-(3-((3-(Tert-butyl)phenoxy)methyl)benzylidene)-5-fluoro-2-methyl-1H-inden-3-yl)acetic acid], the inhibition at 10 µM in assay [1] was above 80%; in the assay on SW480 (colon cancer), 30 to 50%; in assay [2] it was at least 50%; in assay [3], 30 to 50%; in assay [4] it was at least 50%; in the assay on HeLa (cervical cancer) it was at least 50%. Besides, the figures for the inhibition at 10 µM (in the assay on HepG2 (liver cancer); in assay [5]) were 30 to 50% and at least 50%, respectively. In addition, the inhibition at 3.3 µM with SW480 (colon cancer) is below 30%; in assay [2], below 30%; in assay [3], below 30%; in assay [4], at least 50%; in the assay on HeLa (cervical cancer), below 30%; with HepG2 (liver cancer), below 30%. For the same compound, the inhibition at 3.3 µM in assay [5] is below 30%.

The record behind these values is patent US20260184663A1, “INDENE COMPOUNDS, PHARMACEUTICAL COMPOSITIONS THEREOF, AND THEIR THERAPEUTIC APPLICATIONS” (NucMito Pharmaceuticals co. Ltd., priority 2022, published 2026).
